Test results published in article PMC10073126, “Levosimendan inhibits disulfide tau oligomerization and ameliorates tau pathology in Tau^P301L-BiFC mice” (Experimental & Molecular Medicine, 2023).

Legend:
HEK293 Tau-BiFC cells = assay: Cell viability of tau-BiFC cells (number of nuclei); assay type: cell-based, human; details: 48 h of treatment
Method: (§1) HEK293 Tau-BiFC cells were maintained in Dulbecco’s modified Eagle medium (DMEM) supplemented with 10% fetal bovine serum (FBS), 100 units/mL penicillin, 100 µg/mL streptomycin and 100 µg/mL Geneticin (G418) in a humidified atmosphere containing 5% CO2 at 37 °C. Tau-BiFC cells were activated by treatment with FK (30 μM) or tauK18^P301L (5 μg/mL).
(§2) For screening of FDA-approved & Passed Phase I Drug Library, tau-BiFC cells were plated on µ-clear 384-well plates. The next day, the cells were cotreated with forskolin and 1,018 library compounds at a concentration of 10 µM. MB and LMTM (3 µM) were used as positive controls. After 46 h, nuclei were counterstained with Hoechst (Invitrogen). BiFC (λex = 460–490 nm and λem = 500–550 nm) and Hoechst (λex = 355–385 nm and λem = 430–500 nm) fluorescence images were acquired automatically by using Operetta® (PerkinElmer). BiFC fluorescence intensity and the number of nuclei were quantified using Harmony 3.1 software (PerkinElmer). Integrated tau-BiFC intensity represents the area of selected cell X mean fluorescence intensity. The means and standard deviations (S.D.) of BiFC fluorescence intensities and the number of nuclei were plotted using GraphPad Prism.

[1] = as above; assay type: cell-based, human; details: human, HEK293 Tau-BiFC cells, 48 h of treatment
Method: as §1, §2

tauK18 = target: T1, tauK18 (Homo sapiens, UniProt P10636); assay: Transmission electron microscopy of tau filaments and oligomers; assay type: biochemical; details: tauK18 preaggregates; DMSO control 13.7 ± 5.2 nm
T1 construct: under in vitro conditions using a purified tauK18 fragment; 6xHis; made in house; host or cells: E. coli BL21 (DE3)
T1 sequence (P10636 561-685 limits assumed): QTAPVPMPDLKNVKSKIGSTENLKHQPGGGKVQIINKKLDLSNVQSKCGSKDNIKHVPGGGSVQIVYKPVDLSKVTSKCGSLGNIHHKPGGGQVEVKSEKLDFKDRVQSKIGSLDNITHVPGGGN
Method: Samples were placed onto carbon-coated copper electron microscopy grids and then negatively stained with 2% (w/v) aqueous uranyl acetate for 1 min. To image the tau filaments (Fig. 3d), the grids were observed using a JEM-1011 transmission electron microscope (JEOL) at an acceleration voltage of 80 kV. To image the tau filaments and oligomers (Figs. 3f and 4e), the grids were observed using a Tecni G2 F20 transmission electron microscope (FEI) at an acceleration voltage of 120 kV. Eight to twelve random images from each experimental condition were captured by the operator as a blind observer.

tau cysteines = assay: Covalent binding to tau (14C autoradiography, MALDI-TOF of R1-R4 peptides); details: repeat domain:levosimendan 1:10, RT
Method: TauK18 (1 mg/mL, 72 μM) was incubated with ^14C-levosimendan (720 μM) in PBS containing 5% DMSO at RT for 2 h. Then, the mixture was separated on a 15% SDS–PAGE gel under nonreducing conditions and stained with Coomassie blue. For autoradiography, the SDS–PAGE gel was transferred to a PVDF membrane and scanned by Typhoon FLA 7000 IP (GE Healthcare).
Each repeat domain (R1, R2, R3, R4, R2-C291S or R3-C322S, 150 μM) was incubated with levosimendan (molar ratio 1:10 of a tau repeat domain: levosimendan) at RT for 37 h. The samples were mixed with matrix solution (10 mg mL^−1 sinapinic acid in 0.1% (v/v) trifluoroacetic acid/CAN) at a ratio of 1:1. The mixtures were directly spotted onto the MALDI target and dried. Mass spectra were acquired in reflection/linear positive ion mode in the m/z range of 2000–100,000 using an Ultraflex III TOF/TOF mass spectrometer controlled by Flex Control 3.0 (Bruker Daltonics). The default operating conditions were as follows: ion source 1, 25.0 kV; ion source 2, 23.0 kV; lens voltage, 6.0 kV; laser repetition rate = 100 Hz. All spectra were generated automatically in the instrument software and based on averaging 1000 shots from 10 nonoverlapping positions (100 shots/position).

[2] = Tau-BiFC^ON by forskolin (30 μM)
[3] = Tau-BiFC^ON by tauK18^P301L (5 μg/mL)

Row | Compound | GI50 (HEK293 Tau-BiFC cells; [2]) | GI50 (HEK293 Tau-BiFC cells; [3]) | GI50 at 48 h [1, 2] | GI50 at 48 h [1, 3] | Diameter (width) of tau particles (TEM) (tauK18) | Covalent attachment to tau repeat domains (MALDI-mass spectrometry) (tau cysteines)
1 | CN(C)c1ccc2c(c1)Sc1cc(N(C)C)ccc1N2.CS(=O)(=O)O.CS(=O)(=O)O [LMTM, leucomethylene blue mesylate] | 6.4 ± 0.3 µM | 6.6 ± 0.3 µM |  |  |  | 
2 | C[C@@H]1CC(=O)NN=C1c1ccc(NN=C(C#N)C#N)cc1 [Levosimendan] |  |  | 124 ± 0.3 µM | 101.3 ± 0.4 µM | 8.8 ± 2.0 nm | covalently attached to the R2 and R3 domains
